Blank lines part the entries; values can stand above or below the molecule they belong to.
Key:
[1] = target: T1, C. elegans farnesyltransferase (ceFTase) (Caenorhabditis elegans, UniProt O44501+Q19752); experiment: continuous fluorescence assay with Dansyl-GCVLS and FPP, […]°C; Ki calculated from IC50 […] (Cheng-Prusoff); format: biochemical
T1 construct: gene fntb-1; coding regions of FTα (NM_001392242.1) and FTβ (NM_001392654.1), N-terminal His-tag on β-subunit; with farnesyltransferase α-subunit (ceFNTA)
T1 sequence (Q19752 1-401): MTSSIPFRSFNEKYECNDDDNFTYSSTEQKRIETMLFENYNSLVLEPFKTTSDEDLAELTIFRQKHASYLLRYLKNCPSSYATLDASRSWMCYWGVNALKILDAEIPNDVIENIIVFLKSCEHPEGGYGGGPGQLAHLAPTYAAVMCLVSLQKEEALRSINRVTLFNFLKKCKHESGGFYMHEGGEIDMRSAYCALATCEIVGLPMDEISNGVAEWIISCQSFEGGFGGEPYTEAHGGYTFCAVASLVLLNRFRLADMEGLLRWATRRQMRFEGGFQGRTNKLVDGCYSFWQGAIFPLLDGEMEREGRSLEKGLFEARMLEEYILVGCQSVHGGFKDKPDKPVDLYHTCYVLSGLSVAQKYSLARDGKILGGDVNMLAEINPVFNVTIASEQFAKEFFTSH
T1 sequence (O44501 1-328): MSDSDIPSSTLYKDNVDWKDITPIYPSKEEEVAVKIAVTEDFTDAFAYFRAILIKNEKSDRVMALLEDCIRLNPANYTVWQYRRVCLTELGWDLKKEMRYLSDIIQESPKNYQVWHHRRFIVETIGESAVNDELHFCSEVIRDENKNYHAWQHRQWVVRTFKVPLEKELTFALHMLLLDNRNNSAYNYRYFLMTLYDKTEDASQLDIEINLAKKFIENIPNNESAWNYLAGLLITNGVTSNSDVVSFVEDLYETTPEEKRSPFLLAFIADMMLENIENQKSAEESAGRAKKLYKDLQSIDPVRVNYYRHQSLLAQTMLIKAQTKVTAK

[2] = target: T2, human farnesyltransferase (hFTase) (Homo sapiens, UniProt P49354+P49356); experiment: as above; format: biochemical
T2 construct: gene FNTB; IMAC purified FTase, FTα/FTβ heterodimer, His-tagged β-subunit; with farnesyltransferase α-subunit (FNTA)

purified protein = substrate: CC(C)=CCC/C(C)=C/CC/C(C)=C/CO[P@@](=O)(O)OP(=O)(O)O; experiment: purified protein; details: Zn2+ ([…] ZnCl2 in assay)

Ki [1]: 3.16 µM
Ki [2]: 4.4 µM
Molecule: CCCC[C@@H](C)/C=C(C)/C=C(\C)C(=O)NC1=C[C@@](O)(/C=C/C=C/C=C/C(=O)NC2=C(O)CCC2=O)[C@@H]2O[C@@H]2C1=O [Manumycin A]

B1: C. elegans farnesyltransferase (ceFTase) (Caenorhabditis elegans) (protein)
chain 1: T1 sequence (Q19752 1-401)
chain 2: T1 sequence (O44501 1-328)
Km (purified protein): 1.3 µM
